Experiments:
[1] = Liver microsome stability, mouse; format: in vitro ADME; details: 1 uM compound, mouse liver microsomes 0.5 mg/ml; read-out: Liver Microsomes (t1/2, minutes) Mouse
Protocol: (§1) In vitro pharmacokinetic analyses were performed in duplicate using standard methods by WuXi AppTec Co. Ltd. (Shanghai, China). Plasma protein binding was measured by equilibrium dialysis; % bound=(1−[free compound in dialysate]/[total compound in retentate])×100. […] Liver microsome stability of 1 uM compounds in liver microsomes (0.5 mg/ml) after 0, 5, 10, 20, 30, 60 min. incubation was assessed by LC/MS/MS of reaction extracts.

mitofusin = experiment: Dose-response of mitofusin agonist fusogenicity (mitochondrial aspect ratio); format: cell-based, mouse; details: Mfn1-KO or Mfn2-KO MEFs; mitochondrial aspect ratio indexed to maximal response of Compound 22; overnight
Protocol: Wild-type MEFs were prepared from E10.5 c57/bl6 mouse embryos. SV-40 T antigen-immortalized MFN1 null (CRL-2992), MFN2 null (CRL-2993) and MFN1/MFN2 double null MEFs (CRL-2994) were purchased from ATCC.
Mitochondria were then stained with MitoTracker Orange (200 nM; M7510; Invitrogen, Carlsbad, CA, USA). Nuclei were stained with Hoescht ([…]; Invitrogen, Thermo Fisher Scientific Cat: #1-3570). […] Response curves were interpolated using the sigmoidal model using Prism 8 software.

[2] = Liver microsome stability, human; format: in vitro ADME; details: 1 uM compound, human liver microsomes 0.5 mg/ml; read-out: Liver Microsomes (t1/2, minutes) Human
Protocol: as §1

[3] = Plasma protein binding by equilibrium dialysis, human; format: in vitro ADME; details: read-out: Plasma Protein Binding (Bound %) Human (converted)
Protocol: as §1

[4] = Plasma protein binding by equilibrium dialysis, mouse; format: in vitro ADME; details: read-out: Plasma Protein Binding (Bound %) Mouse (converted)
Protocol: as §1

Q: With O=C(CCCCCc1ccccc1)NC1CCOCC1 [23 (Comp.)] as the compound, how does the half-life at 1 uM [1] read?
A: Its half-life at 1 uM is 112 min.

Q: And the EC50 (mitofusin)?
A: Its EC50 is 6.3 nM.

Q: What about the half-life at 1 uM [2] of the same compound?
A: Its half-life at 1 uM is 23.7 min.

Q: With O=C(N[C@H]1CC[C@H](O)CC1)C1CCC(CCCc2ccccc2)C1 (stereo partly drawn) [15 (Exp.), N-(4-hydroxycyclohexyl)-3-(3-phenylpropyl)cyclopentane-1-carboxamide] as the compound, how does the fraction unbound [3] read?
A: The fraction unbound was 0.007.

Q: And the EC50 (mitofusin)?
A: Its EC50 is 15.3 nM.

Q: What about the fraction unbound [4] of the same compound?
A: The fraction unbound was 0.012.
